{"source": "patent US8653096B2", "about": "“Chemokine receptor antagonists and methods of use thereof” (Millennium Pharmaceuticals, Inc., priority 2001, dated 2014)", "target": "T1, RANTES/MIP-1α chemokine receptor (CCR1) in THP-1 cell membranes (Homo sapiens, UniProt P32246)", "T1 construct": "Membranes were prepared from THP-1 cells (ATCC #TIB202); host or cells: THP-1 cells (membrane preparation)", "T1 sequence (P32246 1-355)": "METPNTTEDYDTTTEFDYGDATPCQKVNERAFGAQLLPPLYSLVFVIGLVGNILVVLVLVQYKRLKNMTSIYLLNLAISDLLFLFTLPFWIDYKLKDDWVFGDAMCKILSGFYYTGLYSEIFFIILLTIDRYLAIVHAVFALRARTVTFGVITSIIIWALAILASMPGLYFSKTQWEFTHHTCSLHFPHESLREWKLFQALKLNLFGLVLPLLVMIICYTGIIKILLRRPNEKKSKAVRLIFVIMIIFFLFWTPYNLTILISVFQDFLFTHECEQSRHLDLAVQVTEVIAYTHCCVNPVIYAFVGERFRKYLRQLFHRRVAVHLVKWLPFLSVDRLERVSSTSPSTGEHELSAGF", "test": "Receptor binding assay: 125I-RANTES or 125I-MIP-1α binding to THP-1 cell membranes", "conditions": "inhibitor concentration required for 50% inhibition of specific binding; 125I-RANTES or 125I-MIP-1α as ligand, THP-1 cell membranes; read-out: IC50"}
{"molecule": "COC(=O)C1(C)CN(CCC=C2c3cc(C(C)(C)O)ccc3OCc3ncccc32)CCC1(O)c1ccc(Cl)cc1", "note": "(centres unmarked) [Example 481, 4-(4-Chloro-phenyl)-4-hydroxy-1-{3-[7-(hydroxyl-1-methyl-ethyl)-11H-10-oxa-1-aza-dibenzo[a,d]cyclohepten-5-ylidene}-propyl]-3-methyl-piperidine-3-carboxylic acid methyl ester]", "values": [{"measurement": "IC50", "result": "< 1000", "unit": "nM"}]}
{"molecule": "CC(C)(O)c1ccc2c(c1)C(=CCCN1CCC(O)(c3ccc(Cl)cc3)C(C)(CO)C1)c1cccnc1CO2", "note": "(centres unmarked) [Example 482, 4-(4-Chloro-phenyl)-3-hydroxymethyl-1-{3-[7-(hydroxyl-1-methyl-ethyl)-11H-10-oxa-1-aza-dibenzo[a, d]cyclohepten-5-ylidene]-propyl}-3-methyl-piperidine-4-ol]", "values": [{"measurement": "IC50", "result": "< 1000", "unit": "nM"}]}
{"molecule": "CCOCC1(C)CN(CCC=C2c3cc(C(C)(C)O)ccc3OCc3ncccc32)CCC1(O)c1ccc(Cl)cc1", "note": "(centres unmarked) [Example 484, 4-(4-Chloro-phenyl)-3-ethoxymethyl-1-{3 [7-(-hydroxy-1-methyl-ethyl)-11H-10-oxa-1-aza-dibenzo[a,d]cyclohepten-5-ylidene]-propyl}-3-methyl-piperidin-4-ol]", "values": [{"measurement": "IC50", "result": "< 1000", "unit": "nM"}]}
{"molecule": "CCOC(=O)COCC1(C)CN(CCC=C2c3cc(C(C)(C)O)ccc3OCc3ncccc32)CCC1(O)c1ccc(Cl)cc1", "note": "(centres unmarked) [Example 485, (4-(4-Chloro-phenyl)-4-hydroxy-1-{3 [7-(1-hydroxy-1-methyl-ethyl)-11H-10-oxa-1-aza-dibenzo[a,d]cyclohepten-5-ylidene]-propyl}-3-methyl-piperidin-3-ylmethoxy)-acetic acid ethyl ester]", "values": [{"measurement": "IC50", "result": "< 1000", "unit": "nM"}]}
{"molecule": "CCN(CC)CCOCC1(C)CN(CCC=C2c3cc(C(C)(C)O)ccc3OCc3ncccc32)CCC1(O)c1ccc(Cl)cc1", "note": "(centres unmarked) [Example 486]", "values": [{"measurement": "IC50", "result": "< 1000", "unit": "nM"}]}
{"molecule": "CCN(Cc1ccc(Cl)cc1)C1CCN(CCC=C2c3cc(C(C)(C)O)ccc3OCc3ncccc32)CC1", "note": "[Example 487, 2-[5-(3-{4-[(4-Chloro-benzyl)ethyl-amino]-piperidin-1-yl}-propylidene)-5,11-dihydro-10-oxa-1-aza-dibenzo[a,d]cyclohepten-7-yl]-propan-2-ol]", "values": [{"measurement": "IC50", "result": "< 1000", "unit": "nM"}]}
{"molecule": "CC(C)(O)c1ccc2c(c1)C(=CCCN1CCC(O)(c3ccccc3Cl)CC1)c1cccnc1CO2", "note": "[Example 489, 4-(2-Chloro-phenyl)-1-{3-[7-(1-hydroxy-1-methyl-ethyl)-11H-10-oxa-1-azadibenzo[a,d]cyclohepten-5-ylidene]-propyl}-piperidin-4-ol]", "values": [{"measurement": "IC50", "result": "< 10000", "unit": "nM"}]}
{"molecule": "Cc1cc(Cl)ccc1C1(O)CCN(CCC=C2c3cc(C(C)(C)O)ccc3OCc3ncccc32)CC1", "note": "[Example 490, 4-(4-Chloro-2-methyl-phenyl)-1-{3-[7-(1-hydroxy-1-methyl-ethyl)-11H-10-oxa-1-aza-dibenzo[a,d]cyclohepten-5-ylidene]-propyl}-piperidin-4-ol]", "values": [{"measurement": "IC50", "result": "< 1000", "unit": "nM"}]}
{"molecule": "CC(C)(O)c1ccc2c(c1)C(=CCCN1CCC(O)(c3ccc(Cl)c(Cl)c3)CC1)c1cccnc1CO2", "note": "[Example 491, 4-(3,4-Dichloro-phenyl)-1-{3-[7-(1-hydroxy-1-methyl-ethyl)-11H-10-oxa-1-aza-dibenzo[a,d]cyclohepten-5-ylidene]-propyl}-piperidin-4-ol]", "values": [{"measurement": "IC50", "result": "< 1000", "unit": "nM"}]}
{"molecule": "CC(C)(O)c1ccc2c(c1)C(=CCCN1CCC(O)(c3ccc(Cl)c([N+](=O)[O-])c3)CC1)c1cccnc1CO2", "note": "[Example 492, 4-(4-Chloro-3-nitro-phenyl)-1-{3-[7-(1-hydroxy-1-methyl-ethyl)-11H-10-oxa-1-aza-dibenzo[a,d]cyclohepten-5-ylidene]-propyl}-piperidin-4-ol]", "values": [{"measurement": "IC50", "result": "< 10000", "unit": "nM"}]}
{"molecule": "CCN(c1ccc(Cl)cc1)C1CCN(CCC=C2c3cc(C(C)(C)O)ccc3OCc3ncccc32)CC1", "note": "[Example 493, 2-[5-(3-{4-[(4-Chloro-phenyl)-ethyl-amino]-piperidin-1-yl}-propylidene)-5,11-dihydro-10-oxa-1-aza-dibenzo[a,d]cyclohepten-7-yl]-propan-2-ol]", "values": [{"measurement": "IC50", "result": "< 10000", "unit": "nM"}]}
{"molecule": "COC1(c2ccc(Cl)cc2)CCN(CCC=C2c3cc(C(C)(C)O)ccc3OCc3ncccc32)CC1", "note": "[Example 494, 2-(5-{3-[4-(4-Chloro-phenyl)-4-methoxy-piperidin-1-yl]-propylidene}-5,11-dihydro-10-oxa-1-aza-dibenzo[a,d]cyclohepten-7-yl)-propan-2-ol]", "values": [{"measurement": "IC50", "result": "< 1000", "unit": "nM"}]}
{"molecule": "CC(C)(O)c1ccc2c(c1)C(=CCCN1CCC(Oc3ccccc3Cl)CC1)c1cccnc1CO2", "note": "[Example 495, 2-(5-{3-[4-(2-Chloro-phenoxy)-piperidin-1-yl]-propylidene}-5,11-dihydro-10-oxa-1-aza-dibenzo[a,d]cyclohepten-7-yl)-propan-2-ol]", "values": [{"measurement": "IC50", "result": "< 1000", "unit": "nM"}]}
{"molecule": "CC(C)(O)c1ccc2c(c1)C(=CCCN1CCC(C(=O)c3ccc(Cl)cc3)CC1)c1cccnc1CO2", "note": "[Example 496, (4-Chloro-phenyl)-(1-{3-[7-(1-hydroxy-1-methyl-ethyl)-11H-10-oxa-1-aza-dibenzo[a,d]cyclohepten-5-ylidene]-propyl}-piperidin-4-yl)-methanone]", "values": [{"measurement": "IC50", "result": "< 10000", "unit": "nM"}]}
{"molecule": "CC(C)(O)c1ccc2c(c1)C(=CCCN1CCC(Oc3ccc(C(F)(F)F)cc3)CC1)c1cccnc1CO2", "note": "[Example 497, 2-(5-{3-[4-(4-trifluoromethyl-phenoxy)-piperidin-1-yl]-propylidene}-5,11-dihydro-10-oxa-1-aza-dibenzo[a,d]cyclohepten-7-yl)-propan-2-ol]", "values": [{"measurement": "IC50", "result": "< 10000", "unit": "nM"}]}
{"molecule": "CC(C)(O)c1ccc2c(c1)C(=CCCN1CCC(N3C(=O)OCC3Cc3ccc(Cl)cc3)CC1)c1cccnc1CO2", "note": "(centres unmarked) [Example 498, 4-(4-Chloro-benzyl)-3-(1-{3-[7-(1-hydroxy-1-methyl-ethyl)-11H-10-oxa-1-aza-dibenzo[a,d]cyclohepten-5-ylidene]-propyl}-piperidin-4-yl)-oxazolidin-2-one]", "values": [{"measurement": "IC50", "result": "< 10000", "unit": "nM"}]}
{"molecule": "C=C(C)c1ccc2c(c1)C(=CCCN1CCC(c3ccc(Cl)cc3)(C(C)O)CC1)c1cccnc1CO2", "note": "(centres unmarked) [Example 499, 1-{4-(4-Chloro-phenyl)-1-[3-(7-isopropenyl-11H-10-oxa-1-aza-dibenzo[a,d]cyclohepten-5-ylidene)-propyl]-piperidin-4-yl}-ethanol]", "values": [{"measurement": "IC50", "result": "< 10000", "unit": "nM"}]}
{"molecule": "COC(=O)CN(Cc1ccc(Cl)cc1)C1CCN(CCC=C2c3cc(C(C)(C)O)ccc3OCc3ncccc32)CC1", "note": "[Example 500, [(4-Chloro-benzyl)-(1-{3-[7-(1-hydroxy-1-methyl-ethyl)-11H-10-oxa-1-aza-dibenzo[a,d]cyclohepten-5-ylidene]-propyl}-piperidin-4-yl)-amino]-acetic acid methyl ester]", "values": [{"measurement": "IC50", "result": "< 10000", "unit": "nM"}]}
{"molecule": "CC(C)(O)c1ccc2c(c1)C(=CCCN1CCC(N(CC(=O)O)Cc3ccc(Cl)cc3)CC1)c1cccnc1CO2", "note": "[Example 501, [(4-Chloro-benzyl)-(1-{3-[7-(1-hydroxy-1-methyl-ethyl)-11H-10-oxa-1-aza-dibenzo[a,d]cyclohepten-5-ylidene]-propyl}-piperidin-4-yl)-amino]-acetic acid]", "values": [{"measurement": "IC50", "result": "< 10000", "unit": "nM"}]}
{"molecule": "CC(C)(O)c1ccc2c(c1)C(=CCCN1CC[C@](O)(c3ccc(Cl)cc3)C(C)(C)C1)c1cccnc1CO2", "note": "[Example 502, S-4-(4-Chloro-phenyl)-1-{3-[7-(1-hydroxy-1-methyl-ethyl)-11H-10-oxa-1-aza-dibenzo[a,d]cyclohepten-5-ylidene]-propyl}-3,3-dimethyl-piperidin-4-ol]", "values": [{"measurement": "IC50", "result": "< 1000", "unit": "nM"}]}
{"molecule": "CC(C)(O)c1ccc2c(c1)C(=CCCN1CC[C@@](O)(c3ccc(Cl)cc3)C(C)(C)C1)c1cccnc1CO2", "note": "[Example 503, R-4-(4-Chloro-phenyl)-1-{3-[7-(1-hydroxy-1-methyl-ethyl)-11H-10-oxa-1-aza-dibenzo[a,d]cyclohepten-5-ylidene]-propyl}-3,3-dimethyl-piperidin-4-ol]", "values": [{"measurement": "IC50", "result": "< 1000", "unit": "nM"}]}
{"molecule": "CC(=O)c1ccc2c(c1)C(=CCCN1CC[C@](O)(c3ccc(Cl)cc3)C(C)(C)C1)c1cccnc1CO2", "note": "[Example 504, S-1-(5-{3-[4-(4-Chloro-phenyl)-4-hydroxy-3,3-dimethyl-piperidin-1-yl]-propylidene}-5,11-dihydro-10-oxa-1-aza-dibenzo[a,d]cyclohepten-7-yl)-ethanone]", "values": [{"measurement": "IC50", "result": "< 1000", "unit": "nM"}]}
{"molecule": "CC(=O)c1ccc2c(c1)C(=CCCN1CC[C@@](O)(c3ccc(Cl)cc3)C(C)(C)C1)c1cccnc1CO2", "note": "[Example 505, R-1-(5-{3-[4-(4-Chloro-phenyl)-4-hydroxy-3,3-dimethyl-piperidin-1-yl]-propylidene}-5,11-dihydro-10-oxa-1-aza-dibenzo[a,d]cyclohepten-7-yl)-ethanone]", "values": [{"measurement": "IC50", "result": "< 1000", "unit": "nM"}]}
{"molecule": "CC(=O)OCCOc1ccc2c(c1)C(=CCCN1CCC(O)(c3ccc(Cl)cc3)C(C)(C)C1)c1cccnc1CO2", "note": "(centres unmarked) [Example 506, Acetic acid 2-(5-{3-[4-(4-chloro-phenyl)-4-hydroxy-3,3-dimethyl-piperidin-1-yl]-propylidene}-5,11-dihydro-10-oxa-1-aza-dibenzo[a,d]cyclohepten-7-yloxy)-ethyl ester]", "values": [{"measurement": "IC50", "result": "< 1000", "unit": "nM"}]}
{"molecule": "CC1(C)CN(CCC=C2c3cc(OCCO)ccc3OCc3ncccc32)CCC1(O)c1ccc(Cl)cc1", "note": "(centres unmarked) [Example 507, 4-(4-Chloro-phenyl)-1-{3-[7-(2-hydroxy-ethoxy)-11H-10-oxa-1-aza-dibenzo[a,d]cyclohepten-5-ylidene]-propyl}-3,3-dimethyl-piperidin-4-ol]", "values": [{"measurement": "IC50", "result": "< 1000", "unit": "nM"}]}
{"molecule": "COCCOc1ccc2c(c1)C(=CCCN1CCC(O)(c3ccc(Cl)cc3)C(C)(C)C1)c1cccnc1CO2", "note": "(centres unmarked) [Example 508, 4-(4-Chloro-phenyl)-1-{3-[7-(2-methoxy-ethoxy)-11H-10-oxa-1-aza-dibenzo [a,d]cyclohepten-5-ylidene]-propyl}-3,3-dimethyl-piperidin-4-ol]", "values": [{"measurement": "IC50", "result": "< 1000", "unit": "nM"}]}
